The values that follow come from patent publication US4361573A, “α,α-Diaryl-β-(tert-amino)-propanols and diuretic pharmaceutical compositions containing them” (Temmler AG, priority 1974, dated 1982).

Series [1] can be described thus: comparison of toxicity in mice: oral LD50 by the Lichtfiel & Wilcoxon method. Format: in vivo. The conditions noted are these: observation period 7 days, 95% confidence limit in brackets. From the text: In Table 3 the mean lethal doses for mice, administered orally (LD50 determination by the […] & WILCOXON method - J.Pharmacol. Exp. Ther. 96,98 (1949)) are compared.

Series [2] is described as follows: saluretic efficiency test in rats: elimination of water, sodium, chloride and potassium in 6 h urine after oral dosing. Format: in vivo. The following applies: rats, oral; for change in vivo at 40 µmol/kg / change in vivo at 80 µmol/kg: Rattus norvegicus. The protocol:
In order to test the saluretic efficiency of the compounds of the invention rats having a weight of 150 to 200 g were used. The animals were kept without food, but not without drinking water, for 15 hours before the beginning of the test. The test substances were administered to groups of four rats, of substantially equal weight, with a rigid stomach probe in a 1% methyl cellulose slime. The dose required per 100 g animal (unit dosage in μmol/kg body weight) was contained in one ml. Following the administration of the substance the rats were given 5 ml 0.9% sodium chloride solution per 100 g body weight p.o. and placed in a diuresis funnel after manually emptying the bladder. Urine was collected for 6 hours in an airconditioned chamber at 24°±1° C. and a relative air humidity of 50±5%. The diuretic effect of a particular dose was tested on at least two, but more frequently however on four to eight groups of rats. Two sodium chloride controls were also used for each test day.
At the end of the collecting periods the volumes of urine discharged per group were noted and the pH value and also the content of sodium, potassium (flame-photometrically) and chloride (measured argentometrically with the determination of the end point potentiometrically) were determined.
From the analysis results the quantities of Na^+, K^+ and Cl^- eliminated were calculated in […] body weight, and the values thus obtained compared with those of the control animals.
Means values and twice the standard deviation were calculated from the data for the sodium chloride controls, in order to determine the normal range. Then, for the values found with the test substances, the percentage variations from the average in respect of these parameters were calculated and tabulated. In this connection, with the results given in Table 1, the upper limit of the normal range, which is defined as the mean value plus twice the standard deviation, was selected as the reference quantity for the variations. In this way relevant hyper-eliminations could clearly be recognised.
In Table 2, the mean percentage variations in potassium elimination after administration of the compounds in accordance with the invention are compared with the mean value of the potassium elimination in the case of the sodium chloride controls. At the same time the […] ratio is given which provides conclusive evidence of the effective saluretic property. The larger this quotient is, then the more sodium than potassium is eliminated in proportion.

Where [3] appears, read: 6 h, 40 μmol/kg body wt., relative to mean K+ elimination of the controls, read-out: Mean percentage variation in the elimination of potassium.
The mark [4] stands for this setting: 6 h, 80 μmol/kg body wt., relative to mean K+ elimination of the controls, read-out: Mean percentage variation in the elimination of potassium.
[5] abbreviates: 40 μmol/kg body wt., deviation from control mean plus twice the standard deviation, 6 h urine, read-out: Mean percentage variation in the elimination of Chloride.
[6] abbreviates: 40 μmol/kg body wt., deviation from control mean plus twice the standard deviation, 6 h urine, read-out: Mean percentage variation in the elimination of H2O.
Where [7] appears, read: 40 μmol/kg body wt., deviation from control mean plus twice the standard deviation, 6 h urine, read-out: Mean percentage variation in the elimination of Sodium.
The mark [8] stands for this setting: 80 μmol/kg body wt., deviation from control mean plus twice the standard deviation, 6 h urine, read-out: Mean percentage variation in the elimination of Chloride.
Setting [9] is: 80 μmol/kg body wt., deviation from control mean plus twice the standard deviation, 6 h urine, read-out: Mean percentage variation in the elimination of H2O.
[10] abbreviates: 80 μmol/kg body wt., deviation from control mean plus twice the standard deviation, 6 h urine, read-out: Mean percentage variation in the elimination of Sodium.
[11] abbreviates: 40 μmol/kg body wt., deviation from control mean plus twice the standard deviation, 6 h urine.
The mark [12] stands for this setting: 80 μmol/kg body wt., deviation from control mean plus twice the standard deviation, 6 h urine.

Where two headings read alike, the source gives them in different places.

Usually LD50 stands for the dose at which mortality reaches 50%. On to `COc1c(C(C)C)cc(Cl)c(C)c1C(O)(c1ccccc1)C(C)N1CCCC1` (centres unmarked) [T 2350, 1-(3'-chloro-6'-methoxy-2'-methyl-5'-isopropylphenyl)-1-phenyl-2-pyrriolidino-propan-1-ol], for which, in series [1] (mouse, in vivo, read-out: LD50), the LD50 was greater than 4500 mg/kg. Further, the change in vivo at 40 µmol/kg in series [2] (setting [3]) is -2%; in series [2] (setting [5]), 2.6%; in series [2] (setting [6]), 24.1%; in series [2] (setting [7]) it was 15.5%. The change in vivo at 80 µmol/kg in series [2] (setting [4]) is 25.5%; in series [2] (setting [8]), 21.2%; in series [2] (setting [9]), 49.8%; in series [2] (setting [10]) it was 40.5%. Further, the “Quotient Na/K” value is recorded as 7.00 in series [2] (40 μmol/kg body wt.) and 6.65 in series [2] (80 μmol/kg body wt.).

With `Cc1c(C(O)(c2ccccc2)C(C)N2CCCCC2)cc2c(c1C)OCCC2` (centres unmarked) [T 2129, 1-(7',8'-dimethylchromanyl-(6'))-1-phenyl-2-piperidino-propan-1-ol], the LD50 in series [1] (mouse, in vivo, read-out: LD50) is greater than 3200 mg/kg. Also, the change in vivo at 40 µmol/kg worked out at 12.3% in series [2] (setting [3]), 12.4% in series [2] (setting [5]), 23.9% in series [2] (setting [6]) and 32.6% in series [2] (setting [7]). Also, the change in vivo at 80 µmol/kg was 35.7% in series [2] (setting [4]), 22% in series [2] (setting [8]), 21.3% in series [2] (setting [9]) and 19.4% in series [2] (setting [10]). The “Quotient Na/K” value in series [2] (40 μmol/kg body wt.) is 7.02; in series [2] (80 μmol/kg body wt.), 5.23.

Molecule “1-(2'-methoxy-3'-methyl-5'-tertiary-butylphenyl)-1-(2"-methoxy-4"-hydroxyphenyl- (or 2"-hydroxy-4"-methoxyphenyl)-2-piperidino-propan-1-ol [T 2458]” came in with an LD50 in series [1] of 3200 mg/kg. The results for the “Quotient Na/K” value in series [2] (40 μmol/kg body wt.) and in series [2] (80 μmol/kg body wt.) were 5.60 and 8.06, respectively. The “Mean percentage variation in the elimination of Chloride” value in series [2] (setting [11]) is reported as 16.9%; in series [2] (setting [12]), 59.0%. The “Mean percentage variation in the elimination of H2O” value in series [2] (setting [11]) turned out to be 30.9%; in series [2] (setting [12]), 83.8%. In addition, the “Mean percentage variation in the elimination of Sodium” value is given as 40.4% in series [2] (setting [11]) and 84.2% in series [2] (setting [12]). For the same molecule, the “Mean percentage variation in the elimination of potassium” value in series [2] (40 μmol/kg body wt., relative to mean K+ elimination of the controls) amounted to 49.0%; in series [2] (80 μmol/kg body wt., relative to mean K+ elimination of the controls), 37.7%.

On to `COc1ccc(C(O)(c2cc(C(C)C)c(OC)c(C(C)C)c2)C(C)N2CCCCC2)cc1OC` (centres unmarked) [T 1882, 1-(4'-methoxy-3',5'-diisopropylphenyl)-1-(3",4"-dimethoxyphenyl)-2-piperidino-propan-1-ol], for which, in series [1] (mouse, in vivo, read-out: LD50), the LD50 was 3400 mg/kg. For the same molecule, the change in vivo at 40 µmol/kg worked out at 13.3% in series [2] (setting [3]), 6.3% in series [2] (setting [5]), 17.7% in series [2] (setting [6]) and 24.4% in series [2] (setting [7]). For the same molecule, the change in vivo at 80 µmol/kg in series [2] (setting [4]) is -12.2%; in series [2] (setting [8]), -4.4%; in series [2] (setting [9]), 7.5%; in series [2] (setting [10]), 9.5%. Also, the “Quotient Na/K” value in series [2] (40 μmol/kg body wt.) was determined as 6.52; in series [2] (80 μmol/kg body wt.), 7.41.

Turning to `COc1c(C)cc(C(O)(c2cc(Cl)cc(C)c2OC)C(C)N(C)C(C)(C)C)cc1C` (centres unmarked) [T 2493, 1-(3'-chloro-6'-methoxy-5'-methylphenyl)-1-(4"-methoxy-3",5"-dimethylphenyl)-2-(N-methyl-tertiary-butylamino)-propan-1-ol], the LD50 in series [1] (mouse, in vivo, read-out: LD50) worked out at 3610 mg/kg. The change in vivo at 40 µmol/kg in series [2] (setting [3]) is 35.7%; in series [2] (setting [5]) it was 41%; in series [2] (setting [6]) it was 59.2%; in series [2] (setting [7]) it was 62.7%. Also, the change in vivo at 80 µmol/kg worked out at 34.7% in series [2] (setting [4]), 41.5% in series [2] (setting [8]), 64.4% in series [2] (setting [9]) and 76.8% in series [2] (setting [10]). The “Quotient Na/K” value in series [2] (40 μmol/kg body wt.) is on record as 7.74; in series [2] (80 μmol/kg body wt.), 7.88.

With `COc1ccc(C(O)(c2cc(C(C)C)c(OC)c(C(C)C)c2)C(C)N2CCCCC2)cc1` (centres unmarked) [T 2237, 1-(4'-methoxy-3',5'-diisopropylphenyl)-1-(4"-methoxyphenyl)-2-piperidino-propan-1-ol], in series [1] (mouse, in vivo, read-out: LD50), the LD50 is greater than 6400 mg/kg. The change in vivo at 40 µmol/kg is 13.3% in series [2] (setting [3]), 24.3% in series [2] (setting [5]), 40.8% in series [2] (setting [6]) and 32.1% in series [2] (setting [7]). The change in vivo at 80 µmol/kg amounted to 19.4% in series [2] (setting [4]), 57.1% in series [2] (setting [8]), 67.9% in series [2] (setting [9]) and 59.8% in series [2] (setting [10]). Further, the “Quotient Na/K” value in series [2] (40 μmol/kg body wt.) turned out to be 6.93; in series [2] (80 μmol/kg body wt.), 7.95.

As to `CCOc1c(C(C)C)cc(C(O)(c2ccc(OC)cc2)C(C)N2CCCCC2)cc1C(C)C` (centres unmarked) [T 2310], in series [1] (mouse, in vivo, read-out: LD50), the LD50 turned out to be 520 mg/kg. The change in vivo at 40 µmol/kg was 14.3% in series [2] (setting [3]), 8.9% in series [2] (setting [5]), 41.3% in series [2] (setting [6]) and 27.3% in series [2] (setting [7]). Also, the change in vivo at 80 µmol/kg is -2% in series [2] (setting [4]), 36.3% in series [2] (setting [8]), 67.9% in series [2] (setting [9]) and 42.3% in series [2] (setting [10]). The “Quotient Na/K” value was found to be 6.62 in series [2] (40 μmol/kg body wt.) and 8.64 in series [2] (80 μmol/kg body wt.).

Consider `COc1c(C)cc(C(C)(C)C)cc1C(O)(c1ccccc1)C(C)N1CCCCC1` (centres unmarked) [T 1857, 1-(2'-methoxy-3'-methyl-5'-tert-butylphenyl)-1-phenyl-2-piperidino-propan-1-ol], for which, in series [1] (mouse, in vivo, read-out: LD50), the LD50 was found to be 3820 mg/kg. The change in vivo at 40 µmol/kg worked out at 30.6% in series [2] (setting [3]), 32.9% in series [2] (setting [5]), 52% in series [2] (setting [6]) and 54.8% in series [2] (setting [7]). In addition, the change in vivo at 80 µmol/kg was found to be 29.6% in series [2] (setting [4]), 36% in series [2] (setting [8]), 56.5% in series [2] (setting [9]) and 54.6% in series [2] (setting [10]). Also, the “Quotient Na/K” value amounted to 7.04 in series [2] (40 μmol/kg body wt.) and 7.09 in series [2] (80 μmol/kg body wt.).

In the case of `COc1ccc(C(O)(c2cc(C(C)(C)C)cc(C)c2OC)C(C)N2CCCCC2)c(OC)c1` (centres unmarked) [T 2455, 1-(2'-methoxy-3'-methyl-5'-tertiary-butylphenyl)-1-(2",4"-dimethoxyphenyl)-2-piperidino-propan-1-ol], the LD50 in series [1] (mouse, in vivo, read-out: LD50) came out at 4550 mg/kg. Further, the change in vivo at 40 µmol/kg in series [2] (setting [3]) worked out at 13.3%; in series [2] (setting [5]), 21.4%; in series [2] (setting [6]), 39.8%; in series [2] (setting [7]) it was 31.3%. Moreover, the change in vivo at 80 µmol/kg was -23.5% in series [2] (setting [4]), 34.8% in series [2] (setting [8]), 62.4% in series [2] (setting [9]) and 55.8% in series [2] (setting [10]). The “Quotient Na/K” value in series [2] (40 μmol/kg body wt.) is given as 6.88; in series [2] (80 μmol/kg body wt.), 12.93.

For the molecule `COc1ccc(C(O)(c2cc(C(C)(C)C)cc(C)c2OC)C(C)N2CCCCC2)cc1OC` (centres unmarked) [T 2464, 1-(2'-methoxy-3'-methyl-5'-tertiary-butylphenyl)-1-(3",4"-dimethoxyphenyl)-2-piperidinopropan-1-ol], the LD50 in series [1] (mouse, in vivo, read-out: LD50) was greater than 4550 mg/kg. The change in vivo at 40 µmol/kg was determined as 9.2% in series [2] (setting [3]), 30.4% in series [2] (setting [5]), 49.8% in series [2] (setting [6]) and 64.4% in series [2] (setting [7]). The change in vivo at 80 µmol/kg in series [2] (setting [4]) was -1%; in series [2] (setting [8]), 38.3%; in series [2] (setting [9]) it was 65.9%; in series [2] (setting [10]), 79%. Moreover, the “Quotient Na/K” value in series [2] (40 μmol/kg body wt.) is reported as 8.94; in series [2] (80 μmol/kg body wt.), 10.74.
